In publication PMC10095864, “Targeting HIV-1 Reverse Transcriptase Using a Fragment-Based Approach” (Molecules, 2023):
Where two headings read alike, the source gives them in different places.

How the values were obtained:
[1] = molecular target: T1, recombinant WT HIV-1 RT (Human immunodeficiency virus type 1 group M subtype B, UniProt P03367); experiment: biochemical; conditions: for IC50: RT Inhibition—IC50 ± SEM, WT RT DDDP activity; for Ligand efficiency (LE): binding to WT RT, LE = −1.4(logIC50)/N; for fold improvement on parent compound B-1: IC50 vs B-1 IC50 >1000 μM in the radioactive RT assay
T1 construct: The p66/p51 HIV-1 RT heterodimer engineered with a N-terminal histidine tag; His tag (histidine tag) (N); made in house; host or cells: Escherichia coli strain M15 (vector pRT6H-PR)
Description: (§1) The inhibitory activity of all compounds was evaluated in vitro in assays that measure the DNA-dependent DNA polymerase (DDDP) activity of HIV-1 RT. Compounds were tested against recombinant WT and drug-resistant HIV-1 RT mutants (K103N, Y181C or K103N/Y181C). […] The IC50 value of nevirapine was determined in parallel to control for the performance of the assay. […] These RT mutations either reduce the rate of entry of NNRTIs to the binding pocket (K103N) or remove aromatic interactions that favor binding (Y181C). Initially, compound IC50 values were determined in an assay that quantifies DDDP activity mediated by HIV-1 RT using a radiolabeled ^33PdTTP substrate and more recently using a nonradioactive PicoGreen-based spectrophotometric assay.
(§2) Recombinant HIV-1 RT: The p66/p51 HIV-1 RT heterodimer engineered with a N-terminal histidine tag was expressed from the pRT6H-PR vector (provided by Nicolas Sluis-Cremer) which is based on pRT6H-PROT [37], except that the RT coding region is derived from the infectious molecular clone xxLAI [38]. This xxLAI clone contains the HIV-1LAI backbone and is engineered with silent mutations introducing Xma I and Xba I sites in the RT coding region at nucleotide positions 40–45 and 1470 to 1475, respectively. pRT6H-PR expressing the NNRTI drug-resistant mutations K103N, Y181C and K103N/Y181C were generated by subcloning Xma I/Xba I fragments in xxLAI harboring the desired NNRTI mutations (Giacobbi NS and Sluis-Cremer 2017 AAC) into the corresponding restriction sites in the RT coding region of p6HRT-PR. RT was expressed in Escherichia coli strain M15 and purified using Ni-NTA chromatography as previously described. RT concentrations were determined spectrophotometrically at 280 nm using an extinction coefficient (e280) of 260, 450 M^−1 cm^−1.
(§3) Nevirapine was included in assays as a positive control for inhibiting RT polymerase activity. The DDDP assay was performed by first adding 25 ng of HIV-1 RT to test compound in 96-well plates followed by initiating RT polymerase activity by adding 200 ng of activated calf thymus (ACT) DNA (Sigma Aldrich), 0.2 µCi ^33P-α-dTTP (Perkin Elmer), 50 mM Tris-HCl pH 7.8 50 mM KCl, […], 50 µM dNTP mix (Bioline), 0.1 mg/mL bovine serum albumin (New England Biolabs), 0.01% IGEPAL (Sigma) and 1 mM dithiothreitol. Reactions contained 2.5% dimethyl sulfoxide (DMSO). Following incubation at 37 °C for 10 min, samples from duplicate wells were applied to Whatman DE81 ion-exchange paper (GE Healthcare); dried membranes were washed in 2X saline-sodium citrate (SSC) buffer; and incorporated counts were quantified using an FLP-2000 phosphorimager (Fujifilm) or Typhoon Trio Phosphorimager (GE Healthcare) as published. Dose–response curves were generated using PRISM GraphPad version 8 by plotting the log transformed drug concentrations against percentage inhibition of DDDP activity compared to the no drug control using non-linear regression analysis.
(§4) Non-radioactive DDDP Assay: DDDP assays were also performed using a PicoGreen based spectrophotometric assay to detect double-stranded DNA synthesized by recombinant HIV-1 RT [15]. Assays were performed as described for the […] DDDP assay except that instead of ACT, the reaction contained 40 nM of a template/primer comprising a 200 nt DNA template (5′-[…] […]-3′) annealed to a 18 nucleotide DNA primer (5′-[…]-3′), 50 mM Tris-HCl pH 7.8, 50 mM KCl, 10 mM MgCl2 and 50 µM dNTP mix.

[2] = molecular target: T2, HIV-1 RT Y181C mutant (Human immunodeficiency virus type 1 group M subtype B, UniProt P03367, Y780C); experiment: DDDP activity assay, Y181C RT mutant; assay type: biochemical; conditions: PicoGreen or 33P radiolabeled assay, n ≥ 2, read-out: RT Inhibition—IC50 ± SEM, Y181C
T2 construct: The p66/p51 HIV-1 RT heterodimer engineered with a N-terminal histidine tag; His tag (histidine tag) (N); made in house; host or cells: Escherichia coli strain M15 (vector pRT6H-PR)
Description: as §1
Recombinant HIV-1 RT: The p66/p51 HIV-1 RT heterodimer engineered with a N-terminal histidine tag was expressed from the pRT6H-PR vector (provided by Nicolas Sluis-Cremer) which is based on pRT6H-PROT [37], except that the RT coding region is derived from the infectious molecular clone xxLAI [38]. […] RT concentrations were determined spectrophotometrically at 280 nm using an extinction coefficient (e280) of 260, 450 M^−1 cm^−1.
Nevirapine was included in assays as a positive control for inhibiting RT polymerase activity. […] Following incubation at 37 °C for 10 min, samples from duplicate wells were applied to Whatman DE81 ion-exchange paper (GE Healthcare); dried membranes were washed in 2X saline-sodium citrate (SSC) buffer; and incorporated counts were quantified using an FLP-2000 phosphorimager (Fujifilm) or Typhoon Trio Phosphorimager (GE Healthcare) as published. […]

[3] = molecular target: T3, His-tagged HIV-1 RT WT (Human immunodeficiency virus type 1 group M subtype B, UniProt P03367); experiment: Surface plasmon resonance, WT RT; assay type: binding
T3 construct: The p66/p51 HIV-1 RT heterodimer engineered with a N-terminal histidine tag; His tag (histidine tag) (N); made in house; host or cells: Escherichia coli strain M15 (vector pRT6H-PR)
Description: (§5) Compound binding to recombinant HIV-1 RT was measured by surface plasmon resonance (SPR). SPR is an optical biosensor detection method that involves passing an analyte (often a fragment) in a buffer solution over a gold surface chip with an immobilized protein (RT enzyme) and detecting the change in plasmon resonance angle which is dependent on the refractive index of the medium near the surface. As compounds bind to the target protein, the refractive index changes proportionally to the extent of binding. This can then be used to measure the association and dissociation kinetics of binding as well as the compound’s affinity for binding.
(§6) SPR assays were performed on a Biacore S200 (GE Healthcare). His-tagged RT (WT, K103N, Y181C or K103N/Y181C) was immobilized on the surface of a Biacore compatible NIHC 1500M (Xantec) chip according to manufacturer’s instructions. Following 3 injections 300 s each of 0.5 M EDTA, the chip surface was activated with a 120 s injection of 5 mM NiCl2 followed by a 2100 s injection of 130 nM RT. The final immobilization level of RT was typically 14,000–27,000 RU. SPR experiments were carried out at 25 °C using a flow rate of 50 µL/min in running buffer. The running buffer was 1.053 × (HBS pH 7.4 + 50 µM EDTA + 0.005% Tween-20). Compounds were provided as 200 mM stocks and diluted in running buffer to obtain the concentrations required for dose-response studies (0, 6.25, 12.5, 25, 50, 100 and 200 µM). Raw sensorgram data were analyzed using Biacore S200 Evaluation Software. Dose-response determinations were evaluated using a 1:1 binding model. KD values were determined by Biacore S200 Evaluation Software Version 1.0. assuming 1:1 binding. For compounds approaching saturation, Rmax was floated. For compounds with insufficient curvature, Rmax was fixed based on a control. Errors were determined as the standard error in the dose-response fit, as calculated by Biacore S200 Evaluation Software.

[4] = molecular target: T4, His-tagged HIV-1 RT K103N (Human immunodeficiency virus type 1 group M subtype B, UniProt P03367, K702N); experiment: Surface plasmon resonance, K103N RT; conditions: ± standard error of dose–response fit, n = 1; NB = no binding observed; read-out: SPR—KD, K103N
T4 construct: The p66/p51 HIV-1 RT heterodimer engineered with a N-terminal histidine tag; His tag (histidine tag) (N); made in house; host or cells: Escherichia coli strain M15 (vector pRT6H-PR)
Description: as §5, §6

[5] = molecular target: T5, HIV-1 RT K103N/Y181C mutant (Human immunodeficiency virus type 1 group M subtype B, UniProt P03367, K702N/Y780C); experiment: DDDP activity assay, K103N/Y181C RT mutant; assay type: biochemical
T5 construct: The p66/p51 HIV-1 RT heterodimer engineered with a N-terminal histidine tag; His tag (histidine tag) (N); made in house; host or cells: Escherichia coli strain M15 (vector pRT6H-PR)
Description: as §1, §2, §3, §4

[6] = WT, PicoGreen or 33P radiolabeled assay, value not marked as PicoGreen, n ≥ 2
[7] = WT (PicoGreen assay), nonradioactive PicoGreen assay
[8] = read-out: SPR—KD, WT, ± standard error of dose–response fit, n = 1, NB = no binding observed

CCOC(=O)c1cnn2ccc(C(=O)OC)cc12 [compound 15, 3-Ethyl 5-Methylpyrazolo[1,5-a]pyridine-3,5-dicarboxylate]
IC50 [1, 6]: > 1000 µM

CCOC(=O)c1cnn2cccc(C#CCN(C)C)c12 [compound 24, Ethyl 4-(3-(Dimethylamino)prop-1-yn-1-yl)pyrazolo[1,5-a]pyridine-3-carboxylate]
IC50 [1, 6]: > 1000 µM

CCOC(=O)c1cnn2cccc(C)c12 [compound 2, Ethyl 4-Methylpyrazolo[1,5-a]pyridine-3-carboxylate]
IC50 [1, 6]: 433 ± 166 µM | Ligand efficiency (LE) [1]: 0.31 kcal/mol/HA | IC50 [2]: > 333 µM | Kd [3]: 347 ± 23 µM

Cc1ccnc2c1NC(=O)c1cccnc1N2C1CC1 [Nevirapine, nevirapine, reference compound]
IC50 [1, 7]: 0.44 ± 0.03 µM

CCOC(=O)c1cnn2cc(Br)ccc12 [compound 7, Ethyl 6-Bromopyrazolo[1,5-a]pyridine-3-carboxylate]
IC50 [1, 6]: > 1000 µM

CCOC(=O)c1cnn2c(C)ccc(Br)c12 [compound 9, Ethyl 4-Bromo-7-methylpyrazolo[1,5-a]pyridine-3-carboxylate]
IC50 [1, 7]: 155 ± 19 µM | Ligand efficiency (LE) [1]: 0.33 kcal/mol/HA | Kd [3, 8]: > 200 µM

CCOC(=O)c1cnn2ccc(C)cc12 [compound 3, Ethyl 5-Methylpyrazolo[1,5-a]pyridine-3-carboxylate]
IC50 [1, 6]: > 1000 µM

CCOC(=O)c1cnn2c(C)cc(Cl)cc12 [compound 14, Ethyl 5-Chloro-7-methylpyrazolo[1,5-a]pyridine-3-carboxylate]
IC50 [1, 6]: > 1000 µM | Kd [3, 8]: > 200 µM

CCOC(=O)c1cnn2cc(OC)cc(Br)c12 [compound 10, Ethyl 4-Bromo-6-methoxypyrazolo[1,5-a]pyridine-3-carboxylate]
IC50 [1, 7]: 315 ± 19 µM | Ligand efficiency (LE) [1]: 0.29 kcal/mol/HA | Kd [4]: 757 ± 81 µM | Kd [3]: 1570 ± 105 µM

C#Cc1cccn2ncc(C(=O)OCC)c12 [compound 29, Ethyl 4-ethynylpyrazolo[1,5-a]pyridine-3-carboxylate]
IC50 [5]: 43 ± 14 µM | fold improvement on parent compound B-1 [1]: > 20 fold | IC50 [1, 6]: 27 ± 26 µM | Ligand efficiency (LE) [1]: 0.40 kcal/mol/HA | Kd [3]: 395 ± 35 µM

COC(=O)c1cnn2cccc(Br)c12 [compound 18, Methyl 4-Bromopyrazolo[1,5-a]pyridine-3-carboxylate]
IC50 [1, 7]: > 1000 µM

CCNC(=O)c1cnn2cccc(Br)c12 [compound 20, 4-Bromo-N-ethylpyrazolo[1,5-a]pyridine-3-carboxamide]
IC50 [1, 6]: > 1000 µM

O=C(O)c1cnn2cccc(Br)c12 [compound 17, 4-Bromopyrazolo[1,5-a]pyridine-3-carboxylic Acid]
IC50 [1, 6]: > 1000 µM | Kd [3, 8]: > 200 µM

CCOC(=O)c1cnn2c(C)cccc12 [compound 5, Ethyl 7-Methylpyrazolo[1,5-a]pyridine-3-carboxylate]
IC50 [1, 6]: 470 ± 95 µM | Ligand efficiency (LE) [1]: 0.31 kcal/mol/HA | IC50 [2]: > 333 µM | Kd [3, 8]: > 200 µM

CCOC(=O)c1cnn2cc(Br)cc(OC)c12 [compound 13, Ethyl 6-Bromo-4-methoxypyrazolo[1,5-a]pyridine-3-carboxylate]
IC50 [1, 6]: > 1000 µM

CCOC(=O)c1cnn2c(C)ccc(F)c12 [compound 11, Ethyl 4-Fluoro-7-methylpyrazolo[1,5-a]pyridine-3-carboxylate]
IC50 [1, 7]: > 1000 µM | Kd [3, 8]: > 200 µM

CCOC(=O)c1cnn2cccc(C#CCCCCCO)c12 [compound 26, Ethyl 4-(7-Hydroxyhept-1-yn-1-yl)pyrazolo[1,5-a]pyridine-3-carboxylate]
IC50 [5]: 35 ± 7 µM | fold improvement on parent compound B-1 [1]: > 20 fold | IC50 [1, 6]: 24 ± 6 µM | Ligand efficiency (LE) [1]: 0.30 kcal/mol/HA | Kd [4]: 233 ± 22 µM | Kd [3]: 173 ± 9 µM

CCOC(=O)c1cnn2ccc(NC(=O)OC(C)(C)C)cc12 [compound 16, Ethyl 5-((Tert-butoxycarbonyl)amino)pyrazolo[1,5-a]pyridine-3-carboxylate]
IC50 [1, 6]: > 1000 µM

CCOC(=O)c1cnn2cccc(C#CCCO)c12 [compound 25, Ethyl 4-(4-Hydroxybut-1-yn-1-yl)pyrazolo[1,5-a]pyridine-3-carboxylate]
IC50 [1, 6]: > 1000 µM

CCOC(=O)c1cnn2c(C)ccc(Cl)c12 [compound 12, Ethyl 4-Chloro-7-methylpyrazolo[1,5-a]pyridine-3-carboxylate]
IC50 [1, 7]: > 1000 µM

CCCC#Cc1cccn2ncc(C(=O)OCC)c12 [compound 28, Ethyl 4-(pent-1-yn-1-yl)pyrazolo[1,5-a]pyridine-3-carboxylate]
IC50 [5]: 105 ± 6 µM | fold improvement on parent compound B-1 [1]: > 20 fold | IC50 [1, 6]: 53 ± 4 µM | Ligand efficiency (LE) [1]: 0.32 kcal/mol/HA | Kd [3]: 275 ± 9 µM

CCCOC(=O)c1cnn2cccc(Br)c12 [compound 19, Propyl 4-bromopyrazolo[1,5-a]pyridine-3-carboxylate]
IC50 [1, 7]: > 1000 µM

O=C(NCCc1ccc(O)cc1)c1cnn2cccc(Br)c12 [compound 22, 4-Bromo-N-(4-hydroxyphenethyl)pyrazolo[1,5-a]pyridine-3-carboxamide]
IC50 [1, 7]: 111 µM

CCOC(=O)c1cnn2cc(C)ccc12 [compound 4, Ethyl 6-Methylpyrazolo[1,5-a]pyridine-3-carboxylate]
IC50 [1, 6]: > 1000 µM
